IC50 data for 16 compounds are collected here from patent US11976083B2, “Inhibitors of peptidylarginine deiminases” (Gilead Sciences, Inc., priority 2020, dated 2024).

Structures are written as SMILES.

For this assay, the target named is T1, human PAD4 (Homo sapiens, UniProt Q9UM07).
T1 construct: human PAD4 (NM_012387), A2-P663, was PCR amplified; His-SUMO (N, cleaved yes); made in house; host or cells: E. coli BL21(DE3)
T1 sequence (Q9UM07 2-663): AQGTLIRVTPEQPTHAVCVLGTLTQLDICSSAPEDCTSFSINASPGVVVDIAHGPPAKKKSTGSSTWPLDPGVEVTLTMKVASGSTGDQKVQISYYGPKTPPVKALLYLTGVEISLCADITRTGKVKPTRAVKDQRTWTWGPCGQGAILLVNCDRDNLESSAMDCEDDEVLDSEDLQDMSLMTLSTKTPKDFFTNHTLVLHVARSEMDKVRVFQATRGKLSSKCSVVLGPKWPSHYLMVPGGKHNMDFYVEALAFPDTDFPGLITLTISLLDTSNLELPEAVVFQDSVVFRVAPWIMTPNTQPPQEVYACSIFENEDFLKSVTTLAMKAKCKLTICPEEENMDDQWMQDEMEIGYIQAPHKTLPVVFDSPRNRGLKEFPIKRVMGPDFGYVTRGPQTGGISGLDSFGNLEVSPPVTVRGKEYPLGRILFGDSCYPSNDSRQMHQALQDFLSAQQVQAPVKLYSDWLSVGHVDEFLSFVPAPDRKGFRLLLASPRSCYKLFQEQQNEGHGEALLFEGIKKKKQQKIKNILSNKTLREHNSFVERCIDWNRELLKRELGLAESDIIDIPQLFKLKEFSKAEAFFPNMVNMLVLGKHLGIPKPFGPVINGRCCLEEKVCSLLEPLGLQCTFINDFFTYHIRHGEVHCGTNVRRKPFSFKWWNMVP
As to the kind of experiment: In vitro PAD4 BAEE biochemical assay. Particulars: BAEE substrate 3 mM, 5 nM PAD4, 2 mM calcium chloride; geometric mean of multiple experiments. The method in brief: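 Assay was run at 25 °C using 3 mM BAEE and 5 nM human PAD4 after a 30 min compound preincubation; ammonia produced over 2 h was quantified by OPA-derived fluorescence. Full inhibition was defined by 50 µM BB-Cl-Amidine, and IC50 came from variable-slope nonlinear regression.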
What is called IC50 is the concentration needed to halve the response being measured. Turning to `C[C@@H]1[C@H](N)CCCN1C(=O)c1cc(F)c2c(c1)nc(-c1cc3ccc4nc3n1CCCCCc1nc3ccsc3cc1C(=O)N[C@@H]4C)n2C1CC1` [Example 796, (2~{R})-20-[5-[(2~{R},3~{R})-3-amino-2-methyl-piperidine-1-carbonyl]-1-cyclopropyl-7-fluoro-benzimidazol-2-yl]-2-methyl-8-thia-3,12,19,25-tetrazapentacyclo[17.5.2.0^ {5,13}.0^{7,11).0^{22,26}] hexacosa-1(24),5(13), 6,9,11,20,22,25-octaen-4-one], the IC50 is 5 nM.
With `CO[C@@H]1CCN(C(=O)c2cc(F)c3c(c2)nc(-c2cc4ccc5nc4n2CCCCCc2nc4ccsc4cc2C(=O)N[C@@H]5C)n3C2CC2)C[C@@H]1N` [Example 797, (2~{R})-20-[5-[(3~{S},4~{R})-3-amino-4-methoxy-piperidine-1-carbonyl]-1-cyclopropyl-7-fluoro-benzimidazol-2-yl]-2-methyl-8-thia-3,12,19,25-tetrazapentacyclo[17.5.2.0^ {5,13}.0^{7,11}.0^{22,26}] hexacosa-1(24),5(13), 6,9,11,20,22,25-octaen-4-one], the IC50 worked out at 16 nM.
For the compound `C[C@H]1NC(=O)c2ccc(Cl)nc2CCCCCn2c(-c3nc4cc(C(=O)N5C[C@H]6CC[C@@H]5[C@@H]6N)cc(F)c4n3C3CC3)cc3ccc1nc32` [Example 798, (2~{R})-17-[5-[(1~{R},4~{R}, 7~{R})-7-amino-2-azabicyclo [2.2.1]heptane-2-carbonyl]-1-cyclopropyl-7-fluoro-benzimidazol-2-yl]-8-chloro-2-methyl-3,9,16,22-tetrazatetracyclo[14.5.2.0^ {5,10}.0^{19,23}]tricosa-1(21),5(10),6,8,17,19,22-heptaen-4-one], the IC50 is 17 nM.
To `COc1cc(C(=O)N2CCC[C@@H](N)[C@H]2C)cc2nc(-c3cc4ccc5nc4n3CCCCCCC3(COC3)C(=O)N[C@@H]5C)n(C)c12` [Example 799, (11~{R})-17-[5-[(2~{R},3~{R})-3-amino-2-methyl-piperidine-1-carbonyl]-7-methoxy-1-methyl-benzimidazol-2-yl]-11-methyl-spiro[1,10,19-triazatricyclo[10.5.2.0^ {15,18}]nonadeca-12,14,16,18-tetraene-8,3′-oxetane]-9-one] belongs 12 nM.
In the case of `COc1cc(C(=O)N2C[C@@H](O)C[C@@H](N)[C@H]2C)cc2nc(-c3cc4ccc5nc4n3CCCCCCC(C)(C)C(=O)N[C@@H]5C)n(C)c12` [Example 800, (11~{R})-17-[5-[(2~{R},3~{R}, 5~{S})-3-amino-5-hydroxy-2-methyl-piperidine-1-carbonyl]-7-methoxy-1-methyl-benzimidazol-2-yl]-8,8,11-trimethyl-1,10,19-triazatricyclo [10.5.2.0^{15,18}]nonadeca-12,14,16,18-tetraen-9-one], the IC50 came out at 74 nM.
To `COc1cc(C(=O)N2C[C@@H]3NCCO[C@@H]3C[C@@H]2C)cc2nc(-c3cc4ccc5nc4n3CC(F)(F)CCC[C@@H]3C[C@H]3C(=O)N[C@@H]5C)n(C)c12` [Example 801, (2~{R},5~{R},7~{R})-14-[5-[(4~{a}~{S),7~{S},8~{a}~ {R})-7-methyl-2,3,4,4~{a}, 5,7,8,8~{a}-octahydropyrido [4,3-b][1,4]oxazine-6-carbonyl]-7-methoxy-1-methyl-benzimidazol-2-yl]-11,11-difluoro-2-methyl-3,13,19-triazatetracyclo[11.5.2.0^ {5,7}.0^{16,20}]icosa-1(18),14,16,19-tetraen-4-one] belongs 334 nM.
To `CO[C@H]1C[C@@H]1n1c(-c2cc3ccc4nc3n2CC(F)(F)CCC[C@@H]2C[C@H]2C(=O)N[C@@H]4C)nc2cc(C(=O)N3CCC[C@@H](N)[C@H]3C)cc(F)c21` [Example 802, (2~{R},5~{R},7~{R})-14-[5-[(2~{R},3~{R})-3-amino-2-methyl-piperidine-1-carbonyl]-7-fluoro-1-[(1~{S},2~{S})-2-methoxycyclopropyl]benzimidazol-2-yl]-11,11-difluoro-2-methyl-3,13,19-triazatetracyclo [11.5.2.0^{5,7}.0^{16,20}] icosa-1(18),14,16,19-tetraen-4-one] belongs 22 nM; to `COc1cc(C(=O)N2CC[C@H]3OCCN[C@H]3C2)cc2nc(-c3cc4ccc5nc4n3CC(F)(F)CCC[C@@H]3C[C@H]3C(=O)N[C@@H]5C)n(C)c12` [Example 803, (2~{R},5~{R},7~{R})-14-[5-[(4~{a}~{S},8~{a}~{R})-2,3,4,4~{a},5,7,8,8~{a}-octahydropyrido[4,3-b][1,4]oxazine-6-carbonyl]-7-methoxy-1-methyl-benzimidazol-2-yl]-11,11-difluoro-2-methyl-3,13,19-triazatetracyclo[11.5.2.0^ {5,7}.0^{16,20}]icosa-1(18),14,16,19-tetraen-4-one], 118 nM; to `CO[C@H]1C[C@@H]1n1c(-c2cc3ccc4nc3n2CC(F)(F)CCC[C@@H]2C[C@H]2C(=O)N[C@@H]4C)nc2cc(C(=O)N3C[C@H]4CC[C@@H]3[C@@H]4N)cc(F)c21` [Example 804, (2~{R},5~{R},7~{R})-14-[5-[(1~{R},4~{R},7~{R})-7-amino-2-azabicyclo[2.2.1]heptane-2-carbonyl]-7-fluoro-1-[(1~{S},2~{S})-2-methoxycyclopropyl]benzimidazol-2-yl]-11,11-difluoro-2-methyl-3,13,19-triazatetracyclo[11.5.2.0^ {5,7}.0^{16,20}]icosa-1(18),14,16,19-tetraen-4-one], 27 nM.
To `C[C@@H]1[C@H](N)CCCN1C(=O)c1cc(Cl)c2c(c1)nc(-c1cc3ccc4nc3n1CC(F)(F)CCC[C@@H]1C[C@H]1C(=O)N[C@@H]4C)n2C1CC1` [Example 805, (2~{R},5~{R},7~{R})-14-[5-[(2~{R},3~{R})-3-amino-2-methyl-piperidine-1-carbonyl]-7-chloro-1-cyclopropyl-benzimidazol-2-yl]-11,11-difluoro-2-methyl-3,13,19-triazatetracyclo[11.5.2.0^ {5,7}.0^{16,20}]icosa-1(18),14,16,19-tetraen-4-one] belongs 6 nM; to `CO[C@@H]1CCN(C(=O)c2cc(Cl)c3c(c2)nc(-c2cc4ccc5nc4n2CC(F)(F)CCC[C@@H]2C[C@H]2C(=O)N[C@@H]5C)n3C2CC2)C[C@@H]1N` [Example 806, (2~{R},5~{R},7~{R})-14-[5-[(3~{S},4~{R})-3-amino-4-methoxy-piperidine-1-carbonyl]-7-chloro-1-cyclopropyl-benzimidazol-2-yl]-11,11-difluoro-2-methyl-3,13,19-triazatetracyclo[11.5.2.0^ {5,7}.0^{16,20}] icosa-1(18),14,16,19-tetraen-4-one], 42 nM.
For `C[C@H]1NC(=O)c2ccc(Cl)nc2CCCCCn2c(-c3nc4cc(C(=O)N5C[C@H](N)CC[C@@H]5C)cc(F)c4n3C3CC3)cc3ccc1nc32` [Example 807, (2~{R})-17-[5-[(2~{S},5~{R})-5-amino-2-methyl-piperidine-1-carbonyl]-1-cyclopropyl-7-fluoro-benzimidazol-2-yl]-8-chloro-2-methyl-3,9,16,22-tetrazatetracyclo[14.5.2.0^ {5,10}.0^{19,23}]tricosa-1(21),5(10),6,8,17,19,22-heptaen-4-one], the IC50 came out at 31 nM.
To `C[C@H]1NC(=O)c2ccc(Cl)nc2CCCCCn2c(-c3nc4cc(C(=O)N5[C@H]6CC[C@@H]5[C@H](N)C6)cc(F)c4n3C3CC3)cc3ccc1nc32` [Example 808, (2~{R})-17-[5-[(1~{R},2~{R},4~ {S})-2-amino-7-azabicyclo [2.2.1]heptane-7-carbonyl]-1-cyclopropyl-7-fluoro-benzimidazol-2-yl]-8-chloro-2-methyl-3,9,16,22-tetrazatetracyclo[14.5.2.0^ {5,10}.0^{19,23}]tricosa-1(21),5(10),6,8,17,19,22-heptaen-4-one] belongs 15 nM; to `COc1cc(C(=O)N2C[C@H](N)[C@@H]3CC[C@H]2C3)cc2nc(-c3cc4ccc5nc4n3CCCCCc3nc(Cl)ccc3C(=O)N[C@@H]5C)n(C3CC3)c12` [Example 809, (2˜{R})-17-[5-[(1˜{S},4˜{R},5˜{R})-4-amino-2-azabicyclo[3.2.1]octane-2-carbonyl]-1-cyclopropyl-7-methoxy-benzimidazol-2-yl]-8-chloro-2-methyl-3,9,16,22-tetrazatetracyclo[14.5.2.0^{5,10}.0^{19,23}]tricosa-1(21),5(10),6,8,17,19,22-heptaen-4-one], 39 nM; to `C[C@H]1NC(=O)c2cnc(Cl)cc2CCCCCn2c(-c3nc4cc(C(=O)N5C[C@H](N)[C@@H]6CC[C@H]5C6)cc(F)c4n3C3CC3)cc3ccc1nc32` [Example 810, (2~{R})-17-[5-[(1~{S),4~{R},5~ {R})-4-amino-2-azabicyclo [3.2.1]octane-2-carbonyl]-1-cyclopropyl-7-fluoro-benzimidazol-2-yl]-8-chloro-2-methyl-3,7,16,22-tetrazatetracyclo[14.5.2.0^ {5,10}.0^{19,23}] tricosa-1(21),5(10),6,8,17,19, 22-heptaen-4-one], 25 nM.
For `COc1cc(C(=O)N2C[C@H](N)[C@@H]3CC[C@H]2C3)cc2nc(-c3cc4ccc5nc4n3CCCCCc3nc(Cl)ccc3C(=O)N[C@@H]5C)c(C)n12` [Example 811, (2~{R})-17-[7-[(1~{S),4~ {R},5~{R})-4-amino-2-azabicyclo[3.2.1]octane-2-carbonyl]-5-methoxy-3-methyl-imidazo[1,2-a]pyridin-2-yl]-8-chloro-2-methyl-3,9,16,22-tetrazatetracyclo[14.5.2.0^ {5,10).0^{19,23}]tricosa-1(21),5(10),6,8,17,19,22-heptaen-4-one], the IC50 amounted to 26 nM.
